According to the supplement of paper PMC8612539:
≈ marks a conversion by molar mass, not a printed value.

System: Histophilus somni
Test: minimum inhibitory concentration (MIC)
Description: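 Broth microdilution MIC (Sensititre BOPO7F bovine plate, CLSI methods) of 19 antimicrobials against field isolates of P. multocida, M. haemolytica, H. somni (deep nasopharyngeal swabs) and E. coli, Enterococcus spp. (rectal swabs) from weaned dairy heifers. Incubation 16-24 h at 35 C. MIC is the lowest concentration preventing visible growth. Values with <= or > lie at the tested range limits. Trimethoprim-sulfamethoxazole is given as the trimethoprim component of a 1:19 mixture.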

CNC(C)C1CCC(N)C(OC2C(N)CC(N)C(OC3OCC(C)(O)C(NC)C3O)C2O)O1 (configuration not stated) [Gentamicin]
Conditions | minimum inhibitory concentration [µg/mL]
isolate (source animal id): 3 | 8 (≈ 16.8 µM)
isolate (source animal id): 4 | 8 (≈ 16.8 µM)
isolate (source animal id): 7 | 4 (≈ 8.38 µM)
isolate (source animal id): 14 | 4 (≈ 8.38 µM)
isolate (source animal id): 15 | 16 (≈ 33.5 µM)
isolate (source animal id): 17 | ≤ 1
isolate (source animal id): 18 | 16 (≈ 33.5 µM)
isolate (source animal id): 20 | ≤ 1
isolate (source animal id): 23 | 16 (≈ 33.5 µM)
isolate (source animal id): 45 | 4 (≈ 8.38 µM)
isolate (source animal id): 53 | 4 (≈ 8.38 µM)
isolate (source animal id): 83 | 16 (≈ 33.5 µM)
isolate (source animal id): 88 | 4 (≈ 8.38 µM)
isolate (source animal id): 92 | 16 (≈ 33.5 µM)
isolate (source animal id): 93 | 4 (≈ 8.38 µM)
isolate (source animal id): 99 | 16 (≈ 33.5 µM)
isolate (source animal id): 100 | 16 (≈ 33.5 µM)
isolate (source animal id): 105 | 16 (≈ 33.5 µM)
isolate (source animal id): 107 | 16 (≈ 33.5 µM)
isolate (source animal id): 108 | 16 (≈ 33.5 µM)
isolate (source animal id): 109 | 16 (≈ 33.5 µM)
isolate (source animal id): 110 | 16 (≈ 33.5 µM)
isolate (source animal id): 117 | 4 (≈ 8.38 µM)
isolate (source animal id): 121 | 4 (≈ 8.38 µM)
isolate (source animal id): 123 | 8 (≈ 16.8 µM)
isolate (source animal id): 124 | 8 (≈ 16.8 µM)
isolate (source animal id): 127 | 8 (≈ 16.8 µM)
isolate (source animal id): 128 | 8 (≈ 16.8 µM)
isolate (source animal id): 130 | > 16
isolate (source animal id): 132 | 8 (≈ 16.8 µM)
isolate (source animal id): 135 | 8 (≈ 16.8 µM)
isolate (source animal id): 140 | 8 (≈ 16.8 µM)
isolate (source animal id): 141 | 4 (≈ 8.38 µM)
isolate (source animal id): 142 | 8 (≈ 16.8 µM)
isolate (source animal id): 144 | 8 (≈ 16.8 µM)
isolate (source animal id): 146 | > 16
isolate (source animal id): 147 | 16 (≈ 33.5 µM)
isolate (source animal id): 151 | 8 (≈ 16.8 µM)
isolate (source animal id): 153 | 8 (≈ 16.8 µM)
isolate (source animal id): 154 | 16 (≈ 33.5 µM)
isolate (source animal id): 156 | 16 (≈ 33.5 µM)
isolate (source animal id): 157 | 8 (≈ 16.8 µM)
isolate (source animal id): 176 | ≤ 1
isolate (source animal id): 183 | ≤ 1
isolate (source animal id): 186 | ≤ 1
isolate (source animal id): 196 | 8 (≈ 16.8 µM)
isolate (source animal id): 198 | 8 (≈ 16.8 µM)
isolate (source animal id): 200 | 8 (≈ 16.8 µM)
isolate (source animal id): 206 | 8 (≈ 16.8 µM)
isolate (source animal id): 208 | 8 (≈ 16.8 µM)
isolate (source animal id): 210 | 8 (≈ 16.8 µM)
isolate (source animal id): 212 | 4 (≈ 8.38 µM)
isolate (source animal id): 215 | 8 (≈ 16.8 µM)
isolate (source animal id): 216 | 8 (≈ 16.8 µM)
isolate (source animal id): 218 | 8 (≈ 16.8 µM)
isolate (source animal id): 219 | 8 (≈ 16.8 µM)
isolate (source animal id): 224 | 8 (≈ 16.8 µM)
isolate (source animal id): 228 | 2 (≈ 4.19 µM)
isolate (source animal id): 230 | ≤ 1
isolate (source animal id): 233 | 2 (≈ 4.19 µM)
isolate (source animal id): 238 | ≤ 1
isolate (source animal id): 239 | 2 (≈ 4.19 µM)
isolate (source animal id): 241 | 2 (≈ 4.19 µM)
isolate (source animal id): 242 | 2 (≈ 4.19 µM)
isolate (source animal id): 243 | ≤ 1
isolate (source animal id): 245 | ≤ 1
isolate (source animal id): 246 | 2 (≈ 4.19 µM)
isolate (source animal id): 247 | ≤ 1
isolate (source animal id): 248 | ≤ 1
isolate (source animal id): 250 | ≤ 1
isolate (source animal id): 251 | ≤ 1
isolate (source animal id): 252 | 2 (≈ 4.19 µM)
isolate (source animal id): 254 | ≤ 1
isolate (source animal id): 258 | 4 (≈ 8.38 µM)
isolate (source animal id): 259 | 8 (≈ 16.8 µM)
isolate (source animal id): 262 | 4 (≈ 8.38 µM)
isolate (source animal id): 264 | 4 (≈ 8.38 µM)
isolate (source animal id): 265 | > 16
isolate (source animal id): 266 | 8 (≈ 16.8 µM)
isolate (source animal id): 267 | 8 (≈ 16.8 µM)
isolate (source animal id): 269 | 4 (≈ 8.38 µM)
isolate (source animal id): 271 | 8 (≈ 16.8 µM)
isolate (source animal id): 272 | > 16
isolate (source animal id): 274 | 4 (≈ 8.38 µM)
isolate (source animal id): 276 | ≤ 1
isolate (source animal id): 278 | 8 (≈ 16.8 µM)
isolate (source animal id): 280 | > 16
isolate (source animal id): 281 | 8 (≈ 16.8 µM)
isolate (source animal id): 283 | 4 (≈ 8.38 µM)
isolate (source animal id): 288 | 16 (≈ 33.5 µM)
isolate (source animal id): 291 | 8 (≈ 16.8 µM)
isolate (source animal id): 292 | 16 (≈ 33.5 µM)
isolate (source animal id): 296 | 8 (≈ 16.8 µM)
isolate (source animal id): 306 | 8 (≈ 16.8 µM)
isolate (source animal id): 336 | 16 (≈ 33.5 µM)
isolate (source animal id): 337 | 16 (≈ 33.5 µM)
isolate (source animal id): 341 | 8 (≈ 16.8 µM)
